Patent publication US10188634B2, “3-(3H-imidazo[4,5-C]pyridin-2-yl)-1 H-pyrazolo[4,3-B]pyridines and therapeutic uses thereof” (Samumed, LLC, priority 2015, dated 2019)

What was measured:
Format in all cases: cell-based
SW480 colon cancer cells = experiment: Cell viability assay (CellTiter-Blue) in SW480 colon cancer cells; conditions: Homo sapiens, 96 h; for inhibition at 10 µM: four days, CellTiter-Blue, read-out: percent inhibition at 10 μM (given for EC50 of >10 μM); for EC50: four days incubation, CellTiter-Blue cell viability
How it was run: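 Four-day exposure of SW480 cells (~2×10^3/well) to compound from 10 μM down to 0.004 μM in 1:3 steps, in duplicate. Resorufin fluorescence from CellTiter-Blue after ~3 h served as the viability read-out. EC50 values came from nonlinear curve fits, with % inhibition at 10 μM given where EC50 >10 μM.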

[1] = test system: LL29 cells (primary human fibroblasts derived from IPF patients) treated with TGF-β1, α-smooth muscle actin; experiment: Inhibition of the fibrotic process: αSMA staining in TGF-β1 treated primary human fibroblasts from IPF patients (LL29 cells); conditions: Fibroblast, 96 h; for EC50: LL29 cells treated with TGF-β1 (20 ng/mL), 4 days; for inhibition at 10 µM: LL29 cells treated with TGF-β1, 4 days, read-out: percent inhibition in brackets (given for EC50 >10 μM)
IL-6 in THP-1 cells = experiment: Inhibition of IL-6 in LPS-stimulated THP-1 human monocyte cells (HTRF); conditions: IL-6 HTRF; for EC50: 500 ng/mL LPS, 22 hours; for inhibition at 10 µM: LPS, read-out: percent inhibition in brackets (given for EC50 >10 μM)
How it was run: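 IL-6 was quantified by HTRF ratio after LPS (500 ng/mL, 22 h) stimulation of THP-1 monocytes pretreated 2 h with compound, 10-point 1:3 dilutions from 10 μM, 0.1% DMSO. Cells were held in 1% FBS for 24 h beforehand. Values normalised to DMSO; four-parameter EC50, or % inhibition at 10 μM above that.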

Structure (SMILES)	EC50 (SW480 colon cancer cells) [µM]	EC50 (IL-6 in THP-1 cells) [µM]	inhibition at 10 µM (SW480 colon cancer cells) [%]	EC50 [1] [µM]	inhibition at 10 µM [1] [%]	inhibition at 10 µM (IL-6 in THP-1 cells) [%]
C1=C(c2ccc3[nH]nc(-c4nc5c(-c6ccc7c(c6)OCO7)cncc5[nH]4)c3n2)CCNC1 [Compound 1064, 3-(7-(Benzo[d][1,3]dioxol-5-yl)-3H-imidazo[4,5-c]pyridin-2-yl)-5-(1,2,3,6-tetrahydropyridin-4-yl)-1H-pyrazolo[4,3-b]pyridine]	> 10	> 10	0.1	4.03		21.1
Cc1ncc(-c2ccc3[nH]nc(-c4nc5c(-c6cccc(F)c6)cncc5[nH]4)c3n2)s1 [Compound 1081, 5-(3-(7-(3-Fluorophenyl)-3H-imidazo[4,5-c]pyridin-2-yl)-1H-pyrazolo[4,3-b]pyridin-5-yl)-2-methylthiazole]	> 10	> 10	23.5	1.96		7.7
Cc1cnc(-c2ccc3[nH]nc(-c4nc5c(-c6cccc(F)c6)cncc5[nH]4)c3n2)s1 [Compound 1082, 2-(3-(7-(3-Fluorophenyl)-3H-imidazo[4,5-c]pyridin-2-yl)-1H-pyrazolo[4,3-b]pyridin-5-yl)-5-methylthiazole]	> 10	> 10	11.5	> 10	0	14.3
Cn1cc(-c2ccc3[nH]nc(-c4nc5c(-c6ccc(F)cc6)cncc5[nH]4)c3n2)c(CO)n1 [Compound 1084, (4-(3-(7-(4-Fluorophenyl)-3H-imidazo[4,5-c]pyridin-2-yl)-1H-pyrazolo[4,3-b]pyridin-5-yl)-1-methyl-1H-pyrazol-3-yl)methanol]	> 10	> 10	5.7	2.3		4.1
Cn1cc(-c2ccc3[nH]nc(-c4nc5c(N6CCCCC6)cncc5[nH]4)c3n2)c(CO)n1 [Compound 1089, (1-Methyl-4-(3-(7-(piperidin-1-yl)-3H-imidazo[4,5-c]pyridin-2-yl)-1H-pyrazolo[4,3-b]pyridin-5-yl)-1H-pyrazol-3-yl)methanol]	> 10	0.52	15.5	> 10	36	
Cn1cc(-c2ccc3[nH]nc(-c4nc5c(-c6ccc7c(c6)OCO7)cncc5[nH]4)c3n2)c(CO)n1 [Compound 1106, (4-(3-(7-(Benzo[d][1,3]dioxol-5-yl)-3H-imidazo[4,5-c]pyridin-2-yl)-1H-pyrazolo[4,3-b]pyridin-5-yl)-1-methyl-1H-pyrazol-3-yl)methanol]	> 10	> 10	3.1	2.42		0

Now from value to compound, other results behind:

EC50 (SW480 colon cancer cells) [µM]	EC50 (IL-6 in THP-1 cells) [µM]	Structure (SMILES)	inhibition at 10 µM (SW480 colon cancer cells) [%]	EC50 [1] [µM]	inhibition at 10 µM [1] [%]	inhibition at 10 µM (IL-6 in THP-1 cells) [%]
> 10	0.098	NC1CN(c2cncc(-c3ccc4[nH]nc(-c5nc6c(-c7ccc(Cl)s7)cncc6[nH]5)c4n3)n2)C1 [Compound 1023, 1-(6-(3-(7-(5-Chlorothiophen-2-yl)-3H-imidazo[4,5-c]pyridin-2-yl)-1H-pyrazolo[4,3-b]pyridin-5-yl)pyrazin-2-yl)azetidin-3-amine]	7.4	6.19		
> 10	> 10	c1cc2c(cc1-c1cncc3[nH]c(-c4n[nH]c5ccc(C6CCNCC6)nc45)nc13)OCO2 [Compound 1063, 3-(7-(Benzo[d][1,3]dioxol-5-yl)-3H-imidazo[4,5-c]pyridin-2-yl)-5-(piperidin-4-yl)-1H-pyrazolo[4,3-b]pyridine]	4.8	> 10	31.3	32.7
